Publication PMC7835349 (Communications Biology, 2021)
“And” between values parts separate entries of the source, which are not always exact repeats. Equal values may be shown once. Read-outs that look alike come from different tables or passages of the source.

Key:
[1] = Plasma pharmacokinetics after IV bolus in C.B-17 SCID mouse; assay type: in vivo; settings: for concentration at 0.05 h / concentration at 0.5 h / concentration at 1 h / concentration at 2 h / concentration at 4 h / concentration at 6 h / concentration at 8 h / Concentration AZD4320 in Plasma, individual animals: 5 mg/kg, mouse IV
Protocol: Pharmacokinetic studies were carried out in the female C.B-17 SCID mouse. Either freshly prepared solutions of AZD4320 in 30% hydroxypropyl-β-cyclodextrin or drug-dendrimer conjugates in phosphate buffered saline were injected as a bolus into the tail vein at dosing volume of 5 ml/kg. Blood samples were collected at different time points post dose and analysed as below.
Blood samples were collected from the jugular vein by venepuncture into K2EDTA (as anticoagulant) tubes. Immediately following collection into the K2EDTA tube the samples were mixed gently and kept on crushed ice until centrifugation. Within 30 mins of blood collection, each sample was centrifuged (1500 g for 10 min at 4 °C) to generate plasma which was kept on wet ice at all times in polypropylene tubes. Duplicate 50 μL aliquots were transferred immediately after centrifugation into uniquely labelled polypropylene tubes (‘released’ AZD4320) containing equivalent amount (50 μL) of 0.2 M citric acid solution, inverted 10 times and then stored in a freezer set to maintain a temperature of −80 °C, until analysis.
The concentrations of ‘total’ AZD4320 were determined in plasma by overnight incubation with hydrazine followed by protein precipitation with acetonitrile and subsequent liquid/liquid extraction. Liquid chromatography with mass spectrometric detection (LC-MS/MS, details in Supplementary Table 5) was used to quantitate both ‘released’ and ‘total’ AZD4320.
Sample analyses were performed in batches containing study samples, calibration standards at 10 concentration levels, QC samples at three concentration levels in duplicate and blank samples. The analytical run acceptance criteria for calibration standards and QC samples was that at least 75% of back-calculated concentrations for calibration standards and at least 2/3 of the QC samples (at least 50% at each concentration level) should be within ±20% (±25% at LLOQ) from nominal value.

[2] = test system: telemetered dogs; assay: Conscious dog telemetry (QRS amplitude and other cardiovascular parameters, tolerability); settings: for ECG PR interval / ECG QRS duration / Left ventricular -dP/dt (mmHg/s) / QRS amplitude (% baseline) / Systolic blood pressure (mmHg): 0.2 mg/kg
[3] = dog 264, 0.5h infusion, -0.75 hours (pre-dose)
[4] = dog 264, 0.5h infusion, -1 hours (pre-dose)
[5] = dog 264, 0.5h infusion, -1.25 hours (pre-dose)
[6] = dog, 0.2 mg/kg 0.5h infusion, 0.5 h

## CN(CCO)CCC(CSc1ccccc1)Nc1ccc(S(=O)(=O)NC(=O)c2ccc(N3CCC(C(O)c4ccccc4-c4ccc(Cl)cc4)CC3)cc2)cc1S(=O)(=O)C(F)(F)F (stereo not shown) [AZD4320]
[1]; bolus IV, C.B-17 SCID mice, within 10 min
  plasma concentration relative to initial concentration: less than 20%
[1]; female, C.B-17 SCID, mouse, plasma, intravenous, dosed at 5 mg/kg, 0.05 hr, read-out: Concentration AZD4320 in Plasma, Dose Adjusted to 10 mg/kg
  concentration at 0.05 h: 30600 ng/mL
[1]; female, C.B-17 SCID, mouse, plasma, intravenous, dosed at 5 mg/kg, 0.5 hr, read-out: Concentration AZD4320 in Plasma, Dose Adjusted to 10 mg/kg
  concentration at 0.5 h: 1950 ng/mL
[1]; female, C.B-17 SCID, mouse, plasma, intravenous, dosed at 5 mg/kg, 1 hr, read-out: Concentration AZD4320 in Plasma, Dose Adjusted to 10 mg/kg
  concentration at 1 h: 870 ng/mL
[1]; female, C.B-17 SCID, mouse, plasma, intravenous, dosed at 5 mg/kg, 2 hr, read-out: Concentration AZD4320 in Plasma, Dose Adjusted to 10 mg/kg
  concentration at 2 h: 150 ng/mL
[1]; female, C.B-17 SCID, mouse, plasma, intravenous, dosed at 5 mg/kg, 4 hr, read-out: Concentration AZD4320 in Plasma, Dose Adjusted to 10 mg/kg
  concentration at 4 h: 170 ng/mL
[1]; female, C.B-17 SCID, mouse, plasma, intravenous, dosed at 5 mg/kg, 6 hr, read-out: Concentration AZD4320 in Plasma, Dose Adjusted to 10 mg/kg
  concentration at 6 h: 120 ng/mL
[1]; female, C.B-17 SCID, mouse, plasma, intravenous, dosed at 5 mg/kg, 8 hr, read-out: Concentration AZD4320 in Plasma, Dose Adjusted to 10 mg/kg
  concentration at 8 h: 80 ng/mL
[1]; female, C.B-17 SCID, mouse, plasma, iv, AZD4320 dosed at 5 mg/kg, 0.05 hr, read-out: Concentration AZD4320 in Plasma, Mean
  concentration at 0.05 h: 15300 ng/mL
[1]; female, C.B-17 SCID, mouse, plasma, iv, AZD4320 dosed at 5 mg/kg, 0.05 hr, read-out: Concentration AZD4320 in Plasma, individual animals
  concentration at 0.05 h: 13900 ng/mL
[1]; female, C.B-17 SCID, mouse, plasma, iv, AZD4320 dosed at 5 mg/kg, 0.5 hr, read-out: Concentration AZD4320 in Plasma, Mean
  concentration at 0.5 h: 977 ng/mL
[1]; female, C.B-17 SCID, mouse, plasma, iv, AZD4320 dosed at 5 mg/kg, 0.5 hr, read-out: Concentration AZD4320 in Plasma, individual animals
  concentration at 0.5 h: 1080 ng/mL
[1]; female, C.B-17 SCID, mouse, plasma, iv, AZD4320 dosed at 5 mg/kg, 1 hr, read-out: Concentration AZD4320 in Plasma, Mean
  concentration at 1 h: 436 ng/mL
[1]; female, C.B-17 SCID, mouse, plasma, iv, AZD4320 dosed at 5 mg/kg, 1 hr, read-out: Concentration AZD4320 in Plasma, individual animals
  concentration at 1 h: 579 ng/mL
[1]; female, C.B-17 SCID, mouse, plasma, iv, AZD4320 dosed at 5 mg/kg, 2 hr, read-out: Concentration AZD4320 in Plasma, Mean
  concentration at 2 h: 75.3 ng/mL
[1]; female, C.B-17 SCID, mouse, plasma, iv, AZD4320 dosed at 5 mg/kg, 2 hr, read-out: Concentration AZD4320 in Plasma, individual animals
  concentration at 2 h: 79.7 ng/mL
[1]; female, C.B-17 SCID, mouse, plasma, iv, AZD4320 dosed at 5 mg/kg, 4 hr, read-out: Concentration AZD4320 in Plasma, Mean
  concentration at 4 h: 86.3 ng/mL
[1]; female, C.B-17 SCID, mouse, plasma, iv, AZD4320 dosed at 5 mg/kg, 6 hr, read-out: Concentration AZD4320 in Plasma, Mean
  concentration at 6 h: 60.1 ng/mL
[1]; female, C.B-17 SCID, mouse, plasma, iv, AZD4320 dosed at 5 mg/kg, 8 hr, read-out: Concentration AZD4320 in Plasma, Mean
  concentration at 8 h: 41.3 ng/mL
[1]; female, C.B-17 SCID, plasma, mouse, 3-compartment model, conventional IV dose, read-out: Total Plasma Clearance CL (converted)
  clearance: 0.493 mL/min
[1]; AZD4320 dosed at 5 mg/kg, 0.05 hr
  Concentration AZD4320 in Plasma, individual animals: 16000 ng/mL
[1]; AZD4320 dosed at 5 mg/kg, 0.5 hr
  Concentration AZD4320 in Plasma, individual animals: 1030 ng/mL and 822 ng/mL
[1]; AZD4320 dosed at 5 mg/kg, 1 hr
  Concentration AZD4320 in Plasma, individual animals: 402 ng/mL and 328 ng/mL
[1]; AZD4320 dosed at 5 mg/kg, 2 hr
  Concentration AZD4320 in Plasma, individual animals: 67.8 ng/mL and 78.4 ng/mL
[1]; AZD4320 dosed at 5 mg/kg, 4 hr
  Concentration AZD4320 in Plasma, individual animals: 131 ng/mL and 54.4 ng/mL and 73.6 ng/mL
[1]; AZD4320 dosed at 5 mg/kg, 6 hr
  Concentration AZD4320 in Plasma, individual animals: 92.1 ng/mL and 39.5 ng/mL and 48.8 ng/mL
[1]; AZD4320 dosed at 5 mg/kg, 8 hr
  Concentration AZD4320 in Plasma, individual animals: 52.9 ng/mL and 53.4 ng/mL and 17.6 ng/mL
[1]; mouse, 3-compartment model
  Compartmental Micro Constant k12: 2.31 h⁻¹
  Compartmental Micro Constant k13: 3.92 h⁻¹
  Compartmental Micro Constant k21: 0.108 h⁻¹
  Compartmental Micro Constant k31: 4.36 h⁻¹
[1]; mouse, 3-compartment model, conventional IV dose
  Central Compartment Volume Vc: 0.0042 L
[2]; dog
  NOEL (no observed effect level), cardiovascular system: 0.2 mg/kg
[2]; [3]
  ECG PR interval: 111 ms
  ECG QRS duration: 46 ms
  Left ventricular -dP/dt (mmHg/s): 3600 mmHg/s
  QRS amplitude (% baseline): 92 % baseline
  Systolic blood pressure (mmHg): 151 mmHg
[2]; [4]
  ECG PR interval: 116 ms
  ECG QRS duration: 48 ms
  Left ventricular -dP/dt (mmHg/s): 3490 mmHg/s
  QRS amplitude (% baseline): 71 % baseline
  Systolic blood pressure (mmHg): 155 mmHg
[2]; [5]
  ECG PR interval: 111 ms
  ECG QRS duration: 47 ms
  QRS amplitude (% baseline): 83 % baseline
  Systolic blood pressure (mmHg): 145 mmHg
[2]; [6]
  ECG PR interval: 109 ms and 90 ms and 88 ms
  ECG QRS duration: 48 ms and 38 ms and 40 ms and 37 ms
  Left ventricular -dP/dt (mmHg/s): 3401 mmHg/s and 3547 mmHg/s and 3477 mmHg/s and 4862 mmHg/s
  QRS amplitude (% baseline): 105 % baseline and 100 % baseline and 97 % baseline and 101 % baseline
  Systolic blood pressure (mmHg): 175 mmHg and 149 mmHg and 155 mmHg and 165 mmHg
